According to PubChem BioAssay AID1963967 (Molecular Pharmacology Branch, DTP, NCI, 2024):

Test system: 855422-203-R-J1-PDC spheroids with HUVEC/MSC, viability
Assay: Anticancer human tumor 855422-203-R-J1-PDC patient-derived bladder carcinoma cell line growth inhibition [PI3K]
Details: for IC50: curve of first compound; for viability, T/C: stronger effect = lower value; active means viability on the fitted dose curve at most 10% of control; inactive means the rest
How it was run: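 Combination activity was assessed by viability in multicellular tumor spheroids carrying HUVEC and MSC components. Agents were tested with PI3K inhibitors from a Cmax-based top dose (or 10 microM) downward in half-log increments.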

[1] = second compound 0.00316 µM, first compound 0.0316 µM
[2] = second compound 0.00316 µM, first compound 0.1 µM
[3] = second compound 0.00316 µM, first compound 0.316 µM
[4] = second compound 0.00316 µM, first compound 1 µM
[5] = second compound 0.00316 µM, first compound 3.16 µM
[6] = second compound 0.00316 µM, first compound 10 µM
[7] = second compound 0.01 µM, first compound 0.0316 µM
[8] = second compound 0.01 µM, first compound 0.1 µM
[9] = second compound 0.01 µM, first compound 0.316 µM
[10] = second compound 0.01 µM, first compound 1 µM
[11] = second compound 0.01 µM, first compound 3.16 µM
[12] = second compound 0.01 µM, first compound 10 µM
[13] = second compound 0.0316 µM, first compound 0.0316 µM
[14] = second compound 0.0316 µM, first compound 0.1 µM
[15] = second compound 0.0316 µM, first compound 0.316 µM
[16] = second compound 0.0316 µM, first compound 1 µM
[17] = second compound 0.0316 µM, first compound 3.16 µM
[18] = second compound 0.0316 µM, first compound 10 µM
[19] = second compound 0.1 µM, first compound 0.0316 µM
[20] = second compound 0.1 µM, first compound 0.1 µM
[21] = second compound 0.1 µM, first compound 0.316 µM
[22] = second compound 0.1 µM, first compound 1 µM
[23] = second compound 0.1 µM, first compound 3.16 µM
[24] = second compound 0.1 µM, first compound 10 µM
[25] = second compound 0.316 µM, first compound 0.0316 µM
[26] = second compound 0.316 µM, first compound 0.1 µM
[27] = second compound 0.316 µM, first compound 0.316 µM
[28] = second compound 0.316 µM, first compound 1 µM
[29] = second compound 0.316 µM, first compound 3.16 µM
[30] = second compound 0.316 µM, first compound 10 µM
[31] = second compound 1 µM, first compound 0.0316 µM
[32] = second compound 1 µM, first compound 0.1 µM
[33] = second compound 1 µM, first compound 0.316 µM
[34] = second compound 1 µM, first compound 1 µM
[35] = second compound 1 µM, first compound 3.16 µM
[36] = second compound 1 µM, first compound 10 µM
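Further: agents incubated with spheroids for one week before read-out.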
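Wherever viability, T/C is given: 100% = DMSO vehicle-treated control wells.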

CC(Cn1ccc(-c2ccc(C#N)c(Cl)c2)n1)NC(=O)c1cc(C(C)O)[nH]n1 (stereo unspecified) + CC(Nc1ccc2c(c1)OCCn1cc(N3C(=O)OCC3C(F)F)nc1-2)C(N)=O
< 0.0316 µM: IC50 (second compound 1 µM)
1.67 µM: IC50 (second compound 0.316 µM)
inactive: viability, T/C [1] 106% | viability, T/C [2] 88% | viability, T/C [3] 115% | viability, T/C [4] 86.7% | viability, T/C [5] 99% | viability, T/C [6] 86% | viability, T/C [7] 105% | viability, T/C [8] 82.4% | viability, T/C [9] 107% | viability, T/C [10] 99.9% | viability, T/C [11] 88.4% | viability, T/C [12] 79.6% | viability, T/C [13] 83.3% | viability, T/C [14] 83.7% | viability, T/C [15] 82% | viability, T/C [16] 85% | viability, T/C [17] 97.8% | viability, T/C [18] 70.3% | viability, T/C [19] 67.1% | viability, T/C [20] 71.9% | viability, T/C [21] 75.6% | viability, T/C [22] 71.8% | viability, T/C [23] 66.4% | viability, T/C [24] 63.4% | viability, T/C [25] 53.4% | viability, T/C [26] 51.3% | viability, T/C [27] 59.7% | viability, T/C [28] 49.6% | viability, T/C [29] 46.1% | viability, T/C [30] 44.7% | viability, T/C [31] 35.6% | viability, T/C [32] 40.9% | viability, T/C [33] 36.1% | viability, T/C [34] 36.2% | viability, T/C [35] 33.6% | viability, T/C [36] 28.9%
> 10 µM: IC50 (second compound 0.00316 µM) | IC50 (second compound 0.01 µM) | IC50 (second compound 0.0316 µM) | IC50 (second compound 0.1 µM)

C=CC(=O)N1CCN(c2nc(=O)n(-c3c(C)ccnc3C(C)C)c3nc(-c4c(O)cccc4F)c(F)cc23)C(C)C1 (stereo unspecified) + CC(Nc1ccc2c(c1)OCCn1cc(N3C(=O)OCC3C(F)F)nc1-2)C(N)=O
> 10 µM: IC50 (second compound 0.00316 µM) | IC50 (second compound 0.01 µM) | IC50 (second compound 0.0316 µM) | IC50 (second compound 0.1 µM) | IC50 (second compound 0.316 µM)
inactive: viability, T/C [1] 80.4% | viability, T/C [2] 95.2% | viability, T/C [3] 116% | viability, T/C [4] 101% | viability, T/C [5] 122% | viability, T/C [6] 121% | viability, T/C [7] 96.1% | viability, T/C [8] 98.5% | viability, T/C [9] 121% | viability, T/C [10] 99.5% | viability, T/C [11] 119% | viability, T/C [12] 120% | viability, T/C [13] 91.5% | viability, T/C [14] 81.1% | viability, T/C [15] 96.7% | viability, T/C [16] 90.6% | viability, T/C [17] 99.6% | viability, T/C [18] 99.5% | viability, T/C [19] 80.2% | viability, T/C [20] 66.1% | viability, T/C [21] 75.5% | viability, T/C [22] 89% | viability, T/C [23] 80.8% | viability, T/C [24] 93.4% | viability, T/C [25] 54.5% | viability, T/C [26] 54.4% | viability, T/C [27] 53.8% | viability, T/C [28] 75% | viability, T/C [29] 73.9% | viability, T/C [30] 68.8% | viability, T/C [31] 39% | viability, T/C [32] 30.9% | viability, T/C [33] 39.2% | viability, T/C [34] 44% | viability, T/C [35] 50.6% | viability, T/C [36] 38.7%
< 0.0316 µM: IC50 (second compound 1 µM)

CCCS(=O)(=O)Nc1ccc(F)c(C(=O)c2c[nH]c3ncc(-c4ccc(Cl)cc4)cc23)c1F + CC(Nc1ncnc2nc[nH]c12)c1cc2cccc(Cl)c2c(=O)n1-c1ccccc1
4.64 µM: IC50 (second compound 1 µM)
4.24 µM: IC50 (second compound 3.16 µM)
4.35 µM: IC50 (second compound 0.316 µM)
active: viability, T/C [18] 0.26% | viability, T/C [24] 0.13% | viability, T/C [30] 0.12% | viability, T/C [36] 0.2% | viability, T/C (second compound 3.16 µM, first compound 10 µM) 0.61% | viability, T/C (second compound 10 µM, first compound 10 µM) 0.42%
3.69 µM: IC50 (second compound 0.1 µM) | IC50 (second compound 10 µM)
inactive: viability, T/C [13] 118% | viability, T/C [14] 88.6% | viability, T/C [15] 102% | viability, T/C [16] 85.9% | viability, T/C [17] 59% | viability, T/C [19] 110% | viability, T/C [20] 109% | viability, T/C [21] 103% | viability, T/C [22] 88.1% | viability, T/C [23] 58.1% | viability, T/C [25] 100% | viability, T/C [26] 97.9% | viability, T/C [27] 90.7% | viability, T/C [28] 88.4% | viability, T/C [29] 70.4% | viability, T/C [31] 92.8% | viability, T/C [32] 98.2% | viability, T/C [33] 98% | viability, T/C [34] 91.6% | viability, T/C [35] 75% | viability, T/C (second compound 3.16 µM, first compound 0.0316 µM) 89.2% | viability, T/C (second compound 3.16 µM, first compound 0.1 µM) 100% | viability, T/C (second compound 3.16 µM, first compound 0.316 µM) 99.7% | viability, T/C (second compound 3.16 µM, first compound 1 µM) 78.2% | viability, T/C (second compound 3.16 µM, first compound 3.16 µM) 70% | viability, T/C (second compound 10 µM, first compound 0.0316 µM) 87% | viability, T/C (second compound 10 µM, first compound 0.1 µM) 83.4% | viability, T/C (second compound 10 µM, first compound 0.316 µM) 77.8% | viability, T/C (second compound 10 µM, first compound 1 µM) 76.9% | viability, T/C (second compound 10 µM, first compound 3.16 µM) 58.2%
3.7 µM: IC50 (second compound 0.0316 µM)
